# Reference: PMC10046369, “Low-Affinity/High-Selectivity Dopamine Transport Inhibition Sufficient to Rescue Cognitive Functions in the Aging Rat” (Biomolecules, 2023)
# Experiments:
# Experiment in all cases: biochemical
# Design in all cases: KINOMEscan competition binding panel, per cent of control
# Conditions in all cases: read-out: %Ctrl @ 2800nM
# [1] = target: T1, ABL1(H396P)-nonphosphorylated (Homo sapiens, UniProt P00519, H396P)
# T1 construct: nonphosphorylated
# Outline: (§1)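 Competition binding panel (KINOMEscan) across 450 human kinases and disease-relevant mutants, run to the contractor's standard protocol. Values are % control: (test signal − positive control signal)/(negative control signal − positive control signal) × 100, with lower values indicating stronger binding.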
# ACVR2A = ACVR2A (Homo sapiens, UniProt P27037)
# Outline: as §1
# BRAF = BRAF (Homo sapiens, UniProt P15056)
# Outline: as §1
# CDK5 = CDK5 (Homo sapiens, UniProt Q00535)
# Outline: as §1
# CSNK1G2 = CSNK1G2 (Homo sapiens, UniProt P78368)
# Chain of CSNK1G2 (P78368 whole entry): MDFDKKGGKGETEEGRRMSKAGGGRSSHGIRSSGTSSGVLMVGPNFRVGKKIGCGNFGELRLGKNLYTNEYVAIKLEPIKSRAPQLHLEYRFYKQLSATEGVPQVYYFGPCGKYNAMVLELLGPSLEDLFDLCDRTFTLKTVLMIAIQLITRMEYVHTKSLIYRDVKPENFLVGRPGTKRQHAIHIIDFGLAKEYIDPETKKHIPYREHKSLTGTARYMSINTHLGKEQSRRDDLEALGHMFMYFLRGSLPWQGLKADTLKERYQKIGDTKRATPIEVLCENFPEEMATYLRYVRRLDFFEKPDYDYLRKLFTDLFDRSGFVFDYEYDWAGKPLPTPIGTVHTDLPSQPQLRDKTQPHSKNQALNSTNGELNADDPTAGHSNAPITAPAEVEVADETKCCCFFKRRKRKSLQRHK
# Outline: as §1
# EGFR(L858R,T790M) = EGFR(L858R,T790M) (Homo sapiens, UniProt P00533, L858R/T790M)
# Outline: as §1
# EGFR(L861Q) = EGFR(L861Q) (Homo sapiens, UniProt P00533, L861Q)
# Outline: as §1
# ERK2 = target: T2, ERK2 (Homo sapiens, UniProt P28482)
# T2 construct: gene MAPK1
# T2 sequence (P28482 whole entry): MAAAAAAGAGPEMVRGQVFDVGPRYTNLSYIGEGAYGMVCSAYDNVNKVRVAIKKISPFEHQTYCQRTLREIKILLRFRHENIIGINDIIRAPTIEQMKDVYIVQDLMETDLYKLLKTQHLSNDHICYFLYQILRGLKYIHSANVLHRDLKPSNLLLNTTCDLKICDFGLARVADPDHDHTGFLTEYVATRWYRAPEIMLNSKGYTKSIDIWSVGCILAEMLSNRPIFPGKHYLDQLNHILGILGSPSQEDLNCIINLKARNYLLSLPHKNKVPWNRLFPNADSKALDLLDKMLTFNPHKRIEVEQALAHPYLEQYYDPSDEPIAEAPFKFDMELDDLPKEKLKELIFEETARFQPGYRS
# Outline: as §1
# FLT3(ITD,F691L) = FLT3(ITD,F691L) (Homo sapiens, UniProt P36888, F691L/ITD)
# Outline: as §1
# FLT3(N841I) = FLT3(N841I) (Homo sapiens, UniProt P36888, N841I)
# Outline: as §1
# ITK = ITK (Homo sapiens, UniProt Q08881)
# Outline: as §1
# KIT-autoinhibited = KIT-autoinhibited (Homo sapiens, UniProt P10721)
# Chain of KIT-autoinhibited (P10721 whole entry): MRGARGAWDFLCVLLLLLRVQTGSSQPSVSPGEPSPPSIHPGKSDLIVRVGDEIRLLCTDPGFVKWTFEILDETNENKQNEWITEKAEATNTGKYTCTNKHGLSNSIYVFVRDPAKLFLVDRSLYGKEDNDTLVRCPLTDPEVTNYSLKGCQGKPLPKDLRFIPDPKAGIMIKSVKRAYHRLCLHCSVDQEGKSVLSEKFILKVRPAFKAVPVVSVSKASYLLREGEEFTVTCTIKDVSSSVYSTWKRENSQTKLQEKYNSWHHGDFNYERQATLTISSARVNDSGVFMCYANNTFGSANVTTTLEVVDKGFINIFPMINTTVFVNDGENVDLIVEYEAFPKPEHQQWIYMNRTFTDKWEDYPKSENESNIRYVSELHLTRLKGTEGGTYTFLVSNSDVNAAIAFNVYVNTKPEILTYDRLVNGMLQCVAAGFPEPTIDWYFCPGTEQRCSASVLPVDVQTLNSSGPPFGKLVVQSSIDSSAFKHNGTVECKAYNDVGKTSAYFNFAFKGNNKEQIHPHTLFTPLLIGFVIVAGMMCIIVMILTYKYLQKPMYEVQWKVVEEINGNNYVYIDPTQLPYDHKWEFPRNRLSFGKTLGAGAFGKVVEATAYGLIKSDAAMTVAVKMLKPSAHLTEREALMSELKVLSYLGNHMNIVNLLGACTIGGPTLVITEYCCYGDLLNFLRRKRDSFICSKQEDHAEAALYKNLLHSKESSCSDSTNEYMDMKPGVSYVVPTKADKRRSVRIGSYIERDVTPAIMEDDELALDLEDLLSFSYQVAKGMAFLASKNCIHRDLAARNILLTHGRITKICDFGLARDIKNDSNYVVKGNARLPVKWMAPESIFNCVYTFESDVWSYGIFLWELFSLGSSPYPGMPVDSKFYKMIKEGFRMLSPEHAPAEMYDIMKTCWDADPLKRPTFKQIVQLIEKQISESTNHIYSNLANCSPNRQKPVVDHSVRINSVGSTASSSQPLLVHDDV
# Outline: as §1
# MELK = MELK (Homo sapiens, UniProt Q14680)
# Outline: as §1
# MYO3A = MYO3A (Homo sapiens, UniProt Q8NEV4)
# Chain of MYO3A (Q8NEV4 whole entry): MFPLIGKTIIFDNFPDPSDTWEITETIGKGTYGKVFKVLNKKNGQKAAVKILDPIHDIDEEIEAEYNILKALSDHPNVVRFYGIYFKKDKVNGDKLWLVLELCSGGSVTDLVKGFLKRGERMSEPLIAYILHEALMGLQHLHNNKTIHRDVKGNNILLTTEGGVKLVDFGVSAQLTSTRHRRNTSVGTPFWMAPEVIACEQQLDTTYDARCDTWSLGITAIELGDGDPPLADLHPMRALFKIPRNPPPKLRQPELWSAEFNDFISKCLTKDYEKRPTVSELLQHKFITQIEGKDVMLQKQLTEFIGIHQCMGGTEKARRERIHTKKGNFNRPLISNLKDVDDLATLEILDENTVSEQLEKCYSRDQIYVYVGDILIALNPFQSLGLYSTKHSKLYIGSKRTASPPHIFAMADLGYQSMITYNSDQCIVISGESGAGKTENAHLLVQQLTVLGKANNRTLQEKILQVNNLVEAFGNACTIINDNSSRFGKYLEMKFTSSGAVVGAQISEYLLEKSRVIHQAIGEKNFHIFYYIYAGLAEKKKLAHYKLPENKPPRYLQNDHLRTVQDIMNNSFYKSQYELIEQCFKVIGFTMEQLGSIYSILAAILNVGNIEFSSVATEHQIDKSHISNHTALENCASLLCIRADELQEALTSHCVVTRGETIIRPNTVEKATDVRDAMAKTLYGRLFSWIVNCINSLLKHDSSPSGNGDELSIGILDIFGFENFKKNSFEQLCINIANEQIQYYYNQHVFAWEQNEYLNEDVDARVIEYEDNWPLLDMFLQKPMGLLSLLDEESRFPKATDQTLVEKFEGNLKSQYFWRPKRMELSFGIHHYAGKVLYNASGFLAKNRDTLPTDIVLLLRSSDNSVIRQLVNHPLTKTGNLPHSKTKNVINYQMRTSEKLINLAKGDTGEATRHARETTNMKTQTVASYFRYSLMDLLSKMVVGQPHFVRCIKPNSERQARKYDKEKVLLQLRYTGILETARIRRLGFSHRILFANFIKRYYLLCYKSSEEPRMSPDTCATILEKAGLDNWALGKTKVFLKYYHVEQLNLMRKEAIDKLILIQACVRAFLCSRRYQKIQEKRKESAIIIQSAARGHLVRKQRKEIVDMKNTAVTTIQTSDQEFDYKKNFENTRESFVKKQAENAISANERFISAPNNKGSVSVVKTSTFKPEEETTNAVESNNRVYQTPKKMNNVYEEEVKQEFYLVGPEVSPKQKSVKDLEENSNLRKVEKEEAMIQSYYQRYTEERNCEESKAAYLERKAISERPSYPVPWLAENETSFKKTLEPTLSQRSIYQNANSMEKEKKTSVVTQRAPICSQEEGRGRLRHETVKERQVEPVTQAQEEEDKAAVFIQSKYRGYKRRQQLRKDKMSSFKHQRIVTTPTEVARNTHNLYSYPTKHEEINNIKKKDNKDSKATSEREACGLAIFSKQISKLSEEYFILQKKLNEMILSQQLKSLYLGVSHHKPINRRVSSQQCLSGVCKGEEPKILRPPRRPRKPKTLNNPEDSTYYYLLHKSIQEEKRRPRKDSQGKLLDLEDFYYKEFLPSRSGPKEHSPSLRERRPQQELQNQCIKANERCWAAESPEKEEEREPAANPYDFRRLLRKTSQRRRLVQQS
# Outline: as §1
# NEK11 = NEK11 (Homo sapiens, UniProt Q8NG66)
# Outline: as §1
# NEK6 = NEK6 (Homo sapiens, UniProt Q9HC98)
# Outline: as §1
# PAK4 = PAK4 (Homo sapiens, UniProt O96013)
# Outline: as §1
# PIM1 = PIM1 (Homo sapiens, UniProt P11309)
# Chain of PIM1 (P11309 whole entry): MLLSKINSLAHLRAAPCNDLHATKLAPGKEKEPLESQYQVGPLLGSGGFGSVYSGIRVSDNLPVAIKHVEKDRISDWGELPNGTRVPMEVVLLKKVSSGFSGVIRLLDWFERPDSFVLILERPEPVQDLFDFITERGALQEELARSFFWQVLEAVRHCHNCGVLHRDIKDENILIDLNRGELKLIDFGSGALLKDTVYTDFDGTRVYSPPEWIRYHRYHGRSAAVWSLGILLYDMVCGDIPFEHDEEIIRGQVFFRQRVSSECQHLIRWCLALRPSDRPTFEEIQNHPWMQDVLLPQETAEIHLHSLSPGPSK
# Outline: as §1
# PIM2 = PIM2 (Homo sapiens, UniProt Q9P1W9)
# Chain of PIM2 (Q9P1W9 whole entry): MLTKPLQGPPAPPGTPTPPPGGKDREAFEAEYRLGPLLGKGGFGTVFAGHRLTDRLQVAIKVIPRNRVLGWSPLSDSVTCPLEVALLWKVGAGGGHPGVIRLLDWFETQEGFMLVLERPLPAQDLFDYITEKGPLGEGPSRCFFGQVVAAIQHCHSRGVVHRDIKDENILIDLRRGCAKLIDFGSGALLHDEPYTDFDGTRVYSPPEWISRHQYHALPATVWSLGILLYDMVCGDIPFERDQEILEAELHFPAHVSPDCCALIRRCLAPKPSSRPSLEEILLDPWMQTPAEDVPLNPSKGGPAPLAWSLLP
# Outline: as §1
# PIM3 = PIM3 (Homo sapiens, UniProt Q86V86)
# Outline: as §1
# PKN1 = PKN1 (Homo sapiens, UniProt Q16512)
# Outline: as §1
# PRKG2 = PRKG2 (Homo sapiens, UniProt Q13237)
# Outline: as §1
# ROCK2 = ROCK2 (Homo sapiens, UniProt O75116)
# Outline: as §1
# SGK3 = SGK3 (Homo sapiens, UniProt Q96BR1)
# Outline: as §1
# SNRK = SNRK (Homo sapiens, UniProt Q9NRH2)
# Outline: as §1
# TNNI3K = TNNI3K (Homo sapiens, UniProt Q59H18)
# Chain of TNNI3K (Q59H18 whole entry): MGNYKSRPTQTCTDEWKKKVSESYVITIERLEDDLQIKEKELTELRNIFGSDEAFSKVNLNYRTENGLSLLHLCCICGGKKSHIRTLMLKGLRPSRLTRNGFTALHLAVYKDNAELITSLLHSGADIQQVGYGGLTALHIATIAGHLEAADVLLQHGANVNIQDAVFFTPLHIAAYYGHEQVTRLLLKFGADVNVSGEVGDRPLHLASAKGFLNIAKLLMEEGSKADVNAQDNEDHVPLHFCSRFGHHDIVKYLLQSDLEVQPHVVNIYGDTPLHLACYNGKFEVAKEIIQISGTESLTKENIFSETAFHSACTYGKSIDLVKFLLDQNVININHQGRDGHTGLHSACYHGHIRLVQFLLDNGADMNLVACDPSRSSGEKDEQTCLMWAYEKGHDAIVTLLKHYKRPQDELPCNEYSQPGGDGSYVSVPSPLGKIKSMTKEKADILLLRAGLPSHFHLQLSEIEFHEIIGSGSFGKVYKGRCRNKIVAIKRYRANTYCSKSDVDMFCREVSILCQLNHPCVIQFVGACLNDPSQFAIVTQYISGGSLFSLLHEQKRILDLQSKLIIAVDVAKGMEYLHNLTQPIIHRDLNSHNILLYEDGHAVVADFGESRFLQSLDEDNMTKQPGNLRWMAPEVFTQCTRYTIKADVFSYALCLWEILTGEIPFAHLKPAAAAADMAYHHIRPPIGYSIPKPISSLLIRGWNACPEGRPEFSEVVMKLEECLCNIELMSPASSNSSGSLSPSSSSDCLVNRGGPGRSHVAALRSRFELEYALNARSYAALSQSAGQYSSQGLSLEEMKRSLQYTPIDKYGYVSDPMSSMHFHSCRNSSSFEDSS
# Outline: as §1
smiles,measurement,setting,value
"[O-][S@@+](Cc1cncs1)C(c1ccccc1)c1ccccc1 [S-CE-123, (S)-5-((Benzhydrylsulfinyl)Methyl)Thiazole]",remaining binding at 2.8 µM,[1],86%
same,remaining binding at 2.8 µM,ACVR2A,100%
same,remaining binding at 2.8 µM,BRAF,100%
same,remaining binding at 2.8 µM,CDK5,97%
same,remaining binding at 2.8 µM,CSNK1G2,94%
same,remaining binding at 2.8 µM,"EGFR(L858R,T790M)",99%
same,remaining binding at 2.8 µM,EGFR(L861Q),98%
same,remaining binding at 2.8 µM,ERK2,95%
same,remaining binding at 2.8 µM,"FLT3(ITD,F691L)",50%
same,remaining binding at 2.8 µM,FLT3(N841I),91%
same,remaining binding at 2.8 µM,ITK,100%
same,remaining binding at 2.8 µM,KIT-autoinhibited,86%
same,remaining binding at 2.8 µM,MELK,67%
same,remaining binding at 2.8 µM,MYO3A,96%
same,remaining binding at 2.8 µM,NEK11,100%
same,remaining binding at 2.8 µM,NEK6,100%
same,remaining binding at 2.8 µM,PAK4,98%
same,remaining binding at 2.8 µM,PIM1,100%
same,remaining binding at 2.8 µM,PIM2,100%
same,remaining binding at 2.8 µM,PIM3,100%
same,remaining binding at 2.8 µM,PKN1,100%
same,remaining binding at 2.8 µM,PRKG2,99%
same,remaining binding at 2.8 µM,ROCK2,100%
same,remaining binding at 2.8 µM,SGK3,100%
same,remaining binding at 2.8 µM,SNRK,98%
same,remaining binding at 2.8 µM,TNNI3K,100%
